Patent publication US20090093470A1, “PHOTODYNAMIC THERAPY PROCESS AND PHOTOSENSITIZER COMPOSITIONS THEREFOR” (Ondine International, Ltd., priority 2007, published 2009)

Tested on: E. Coli (ATCC 25922)
Assay: Photodynamic disinfection kill models (planktonic culture and biofilm)
Assay type: cell-based
Settings: 670 nm laser illumination for 60 seconds
Experimental: A 0.01% (v/v) aqueous solution of methylene blue was reduced substantially entirely to the reduced state using ascorbic acid. […] The formulation was then tested for antibacterial efficacy against E. Coli (ATCC® 25922™) using two established photodynamic disinfection kill models (planktonic culture and biofilm) with a 670 nm laser energy source to provide desired illumination for 60 seconds. […] FIG. 2 is a bar graph showing the eradication of E. coli expressed in log^10 reduction in bacterial counts for the various samples used in the experiment. […]

Q: Which “reduction in bacterial counts (viable count) of E. coli” value does the source give for `O=C1O[C@H]([C@@H](O)CO)C(O)=C1O` [ascorbic acid] here?
A: did not itself demonstrate any antibacterial effects
